Literature values as cited in patent US20110039930A1 (Emisphere Technologies, Inc., priority 2009, published 2011).

Details: bleeding, ulceration, perforation of the stomach or intestines

## COc1ccc2cc(C(C)C(=O)O)ccc2c1 (stereo not shown) [Naproxen, 2-(6-methoxynaphthalen-2-yl)propanoic acid]
  gastrointestinal adverse events: increased risk of serious gastrointestinal adverse events
